Results from patent US20220184008A1, “MODULATORS OF INTRACELLULAR CHLORIDE CONCENTRATION” (FONDAZIONE ISTITUTO ITALIANO DI TECNOLOGIA, priority 2019, published 2022).

Assays:
NKCC1 = experiment: Calcium kinetic assay in primary cultures of immature hippocampal neurons; type: cell-based; details: 10 μM, immature neurons 3 DIV
NKCC2 = molecular target: T1, NKCC2 (Homo sapiens, UniProt Q13621); experiment: Thallium-based assay in NKCC2-transfected HEK293 cells; type: cell-based; details: for inhibition at 10 µM: NKCC2-transfected HEK293, Table 2
T1 construct: expressed in transfected cells; host or cells: HEK293
T1 sequence (Q13621 1-1099): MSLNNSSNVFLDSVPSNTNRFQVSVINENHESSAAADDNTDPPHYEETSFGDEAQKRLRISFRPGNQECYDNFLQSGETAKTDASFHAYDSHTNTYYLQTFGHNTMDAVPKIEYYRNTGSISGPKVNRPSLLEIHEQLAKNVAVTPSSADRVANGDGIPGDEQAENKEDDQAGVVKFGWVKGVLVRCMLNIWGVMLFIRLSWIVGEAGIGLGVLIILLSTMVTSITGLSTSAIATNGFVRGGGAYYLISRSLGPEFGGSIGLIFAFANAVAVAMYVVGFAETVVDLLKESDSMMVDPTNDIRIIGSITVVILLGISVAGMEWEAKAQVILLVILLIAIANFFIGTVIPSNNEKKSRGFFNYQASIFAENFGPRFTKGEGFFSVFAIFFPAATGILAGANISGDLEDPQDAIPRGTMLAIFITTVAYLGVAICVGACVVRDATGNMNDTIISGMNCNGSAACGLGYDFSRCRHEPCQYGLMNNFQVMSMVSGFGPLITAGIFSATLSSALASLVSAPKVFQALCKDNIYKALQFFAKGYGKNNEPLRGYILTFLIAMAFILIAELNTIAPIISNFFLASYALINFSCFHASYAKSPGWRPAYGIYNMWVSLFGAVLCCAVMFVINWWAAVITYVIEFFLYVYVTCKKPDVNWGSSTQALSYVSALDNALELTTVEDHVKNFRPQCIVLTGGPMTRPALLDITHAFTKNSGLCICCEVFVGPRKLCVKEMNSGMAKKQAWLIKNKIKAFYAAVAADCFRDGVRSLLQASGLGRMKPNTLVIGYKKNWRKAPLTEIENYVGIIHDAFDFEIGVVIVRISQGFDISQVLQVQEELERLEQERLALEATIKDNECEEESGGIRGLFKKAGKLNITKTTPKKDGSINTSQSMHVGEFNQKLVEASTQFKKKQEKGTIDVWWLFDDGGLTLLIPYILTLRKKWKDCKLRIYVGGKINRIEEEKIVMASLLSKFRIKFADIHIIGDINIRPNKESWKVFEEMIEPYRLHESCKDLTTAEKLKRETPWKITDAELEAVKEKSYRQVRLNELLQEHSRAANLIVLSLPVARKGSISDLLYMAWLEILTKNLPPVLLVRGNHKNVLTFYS
Text: The Thallium-based assay is a standard assay used to measure activity of potassium transporters, like NKCC2 which is a sodium potassium and chloride co-transporter. The assay consists on the monitoring of the cells upon the application of thallium (which mimic K^+) and consequently NaCl, which entering into cells by NKCC2, activated by the presence of the chloride ions, binds the fluorescent dye, thus determining a fluorescence increase. This assay involves parallel testing in 96 wells for a quick and easy drug screening. In detail, kidney epithelial cells (HEK293) were transfected with NKCC2 transporters, or a mock construct (control). After two days, the cells were loaded with a thallium-sensitive fluorescent dye in a Cl-free medium. After 1 hour of incubation, the inhibitory activity of bumetanide and furosemide (as positive controls) and the new compounds by monitoring fluorescence upon application of thallium (to mimic K) and subsequently NaCl were tested. When entering cells by NKCC2 (activated by the presence of Cl), thallium binds the fluorescent dye and increases fluorescence. […] A decreased fluorescence in the mock-transfected cells treated with bumetanide and furosemide was observed. […] This latter result was used to normalize the fluorescence measurements obtained with the assay. In particular, the ΔF/F0 value of the mock-transfected cells (both control and treated) was subtracted from the respective ΔF/F0 value of the cells transfected with the Cl transporters. With this assay, the novel chemical entities were tested for their ability to block NKCC2 (Results in Table 2).
The arrow indicates the addition of thallium (final concentration 2 mM) and NaCl stimulus (135 mM) used to initiate the flux assay. b) Quantification of the effect of bumetanide, furosemide and 3 example compounds (3.8, 3.13, 3.17) in the thallium-based assay on NKCC2-transfected HEK293 cells. Data represents mean±sem from 5 independent experiments, and they are represented as % of the controls. *P<0.05, **P<0.01, ***P<0.001 Kruskal-Wallis Anova (Dunn's Post hoc Test); ###P<0.001 two-tailed unpaired Student t-test.

inhibition at 10 µM (NKCC2)	NKCC1/NKCC2 selectivity (NKCC2; among compounds of the invention)	SMILES	NKCC1 Inhibition % 10 μM Neurons Calcium kinetic assay (NKCC1; Table 1)	NKCC1 Inhibition % 10 μM Neurons Calcium kinetic assay (NKCC1; Table 2)
10%	–	CCCCCCNc1ccc([N+](=O)[O-])cc1S(N)(=O)=O [Compound 1.7, 2-(hexylamino)-5-nitro-benzenesulfonamide]	36%	36%
0%	highest	CN(C)S(=O)(=O)c1cc(C(=O)O)ccc1NCCCCCCCC(F)(F)F [Compound 3.17, 3-(dimethylsulfamoyl)-4-(8,8,8-trifluorooctylamino) benzoic acid]	46%	46%
12%	–	CNS(=O)(=O)c1cc(C(=O)O)ccc1NCCC(C)(C)C [Compound 3.9, 4-(3,3-dimethylbutylamino)-3-(methylsulfamoyl)benzoic acid]	14%	14%
0%	–	CCCCNc1cc(Cl)c(C(=O)O)cc1S(N)(=O)=O [Compound 2.2, 4-(butylamino)-2-chloro-5-sulfamoyl-benzoic acid]	2%	2%
0%	–	CCCCCCCCNc1ccc(C(=O)O)cc1S(=O)(=O)N(C)C [Compound 3.13, 3-(dimethylsulfamoyl)-4-(octylamino)benzoic acid]	45%	45%
22%	–	CCCCNc1ccc(C(=O)O)cc1S(=O)(=O)NC [Compound 3.6, 4-(butylamino)-3-(methylsulfamoyl)benzoic acid]	6%	6%
0%	–	CN(C)S(=O)(=O)c1cc(C(=O)O)ccc1NCCC(C)(C)C [Compound 3.14, 4-(3,3-dimethylbutylamino)-3-(dimethylsulfamoyl)benzoic acid]	11%	11%
